Among the data in patent US9067898B1, “Isothiazole derivatives as GPR120 agonists for the treatment of type II diabetes” (Janssen Pharmaceutica NV, priority 2014, dated 2015) are EC50 values, retold here.

Assay [1] addresses T1, short form of the GPR120 receptor (GPR120S) (Homo sapiens, UniProt Q5NUL3).
T1 construct: host or cells: PathHunter CHO-K1 GPR120S β-Arrestin Cell Line
The assay can be described thus: Human GPR120 DiscoveRx PathHunter Beta-Arrestin assay, Procedure β-arrestin B. The class given is cell-based. To be noted: PathHunter CHO-K1 GPR120S β-Arrestin cell line, 5000 cells/well, read-out: hGPR120 β-arrestin B EC50. The text has this: The binding of an agonist (medium/long chain fatty acids or small molecule agonists) to the G-protein-coupled receptor GPR120 activates phospholipase C, leading to release of intracellular Ca^+2 through the generation of inositol 1,4,5-trisphosphate (InsP3 or IP3). GPR120 activation can also trigger intracellular signaling via recruitment of Beta-Arrestin. In the present method, agonist-induced activation of the human GPR120 receptor is monitored through the use of PathHunter CHO-K1 GPR120 Beta-Arrestin Cell Line engineered by DiscoveRx, as detailed below. The cell lines are designed to co-express both the ProLink/Enzyme Donor (PK)-tagged GPCR and the Enzyme […] (EA)-tagged Beta-Arrestin fusion proteins. Upon GPR120 receptor stimulation/activation, the EA-tagged Beta-Arrestin portion is translocated to the tagged receptor, where the two enzyme fragments are brought within close proximity. Under these conditions, these fragments can interact and form an active Beta-gal enzyme complex through Enzyme Fragment Complementation (EFC). This active Beta-gal complex can enzymatically hydrolyse the substrate to produce a detectable light signal; therefore, activation as a function of agonist concentration can be expressed as an EC50 value to determine relative compound activities. This in vitro assay therefore serves to assess compound agonist activity of the GPR120. Procedure β-Arrestin A: In Procedure β-arrestin A, the cell used were PathHunter CHO-K1 GPR120 β-Arrestin Cell Line, expressing the long form of human GPR120 (Genbank accession number NM 181745), with 3000 cells per well. Procedure β-Arrestin B: In Procedure 3-arrestin B the cells used were PathHunter CHO-K1 GPR120S β-Arrestin Cell Line, expressing the short form of the GPR120 receptor (Accession #NM_181745), with 5000 cells/well. Assay Procedure:
The selected CHO-K1 GPR120 β-Arrestin cells were cultured in Ham's F12 media supplemented with 10% fetal bovine serum (FBS), 1% Glutamine, lx p/s, 800 μg/mL G418 and 300 μg/mL Hygromycin B (for selection). Cell stocks were maintained and grown in a sub-confluent state using standard cell culture procedures. The day before the experiment, the cells were harvested with non-enzymatic cell dissociation buffer and re-suspended in complete growth media at the desired concentration. A Corning 384-plate was then seeded with the proper number of cells in a volume of 25 μL, per well. The seeded plates were incubated overnight at 37° C.
On the day of the experiment, the Assay Buffer containing (a) HBSS with Ca^++ and Mg^++, (b) 20 mM HEPES, and (c) 0.1% BSA stabilizer (pH 7.4) was prepared. The growth medium was gently removed from the cell plates and 20 μL of Assay Buffer added to each well. The plate was then incubated at 37° C. for 60 min. Test compounds were serially diluted in Assay Buffer to desired concentrations (more particularly to one or more of the following μM concentrations: 25, 12.5, 6.25, 3.125, 1.5625, 0.78125, 0.390625, 0.1953125, 0.09765625, 0.048828125, 0.024414063, 0.012207031). Five μL of compound dilution was then added to each well and the plate incubated at 37° C. for 90 min. The detection reagents were prepared according to the manufacture's instruction. Twelve μL of the detection reagents were added to each well and the plate incubated at room temperature for 60 min.
The plates were read on an EnVision instrument, using Protocol name: Luminescence, Plate type: 384 Costar, Measurement height: 3 mm, Measurement time: 1 s, Aperture: 384 Plate aperture. The % activity relative to the positive control was calculated using the following equation:
The % Activity values were plotted versus the concentration of test compound and fitted to a sigmoidal dose-response curve with a Hill slope=1 (fixed value) using nonlinear regression with GraphPad Prism 5.0 to calculate the EC50 values. […]

In another assay the target is T2, Human GPR120 short form (Homo sapiens, UniProt Q5NUL3).
T2 construct: expressed in transfected cells
T2 sequence (Q5NUL3 1-361): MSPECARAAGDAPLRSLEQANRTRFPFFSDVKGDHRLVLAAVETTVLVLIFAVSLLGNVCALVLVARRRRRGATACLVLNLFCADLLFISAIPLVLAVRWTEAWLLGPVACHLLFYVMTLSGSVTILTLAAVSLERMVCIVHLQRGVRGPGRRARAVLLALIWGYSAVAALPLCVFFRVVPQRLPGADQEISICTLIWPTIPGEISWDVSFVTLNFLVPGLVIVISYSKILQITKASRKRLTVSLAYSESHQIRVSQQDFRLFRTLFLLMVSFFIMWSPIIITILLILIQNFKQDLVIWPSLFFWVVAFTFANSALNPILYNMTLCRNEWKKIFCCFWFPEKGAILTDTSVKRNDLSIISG
As to the kind of experiment: Human GPR120 calcium flux assay (FLIPR), Procedure Calcium A. Format: cell-based. Particulars: HEK-293 cells expressing human GPR120 short form, 2500 cells/well; read-out: GPR120 Ca2+ Assay A EC50. A digest of the protocol: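 HEK293 cells stably expressing the short isoform (NM_001195755.1), 2500/well, starved 1 h, then loaded with Fluo-4 NW plus probenecid (30 min 37 °C, 15 min RT). Compound solutions 0.012–100 μM, 0.2% DMSO final; FLIPR read 300 s after addition. EC50 from Fmax−Fmin fitted to variable-slope sigmoid (Hill <2).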

T1 sequence (P32121 whole entry partner, one chain of several): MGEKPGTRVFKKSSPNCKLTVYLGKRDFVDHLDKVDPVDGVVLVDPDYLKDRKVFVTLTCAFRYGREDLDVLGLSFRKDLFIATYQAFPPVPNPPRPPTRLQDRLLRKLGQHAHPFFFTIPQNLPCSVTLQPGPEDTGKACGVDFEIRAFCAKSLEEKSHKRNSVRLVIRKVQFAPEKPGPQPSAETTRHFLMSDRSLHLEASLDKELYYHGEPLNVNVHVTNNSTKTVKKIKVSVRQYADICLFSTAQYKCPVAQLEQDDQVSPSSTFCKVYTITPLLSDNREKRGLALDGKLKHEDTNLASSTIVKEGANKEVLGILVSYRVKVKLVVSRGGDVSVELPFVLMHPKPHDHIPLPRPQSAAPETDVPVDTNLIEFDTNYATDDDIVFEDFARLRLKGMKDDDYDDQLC

Usually EC50 stands for the concentration giving half of the maximal effect. In the case of `Cc1ccc(-c2nsc(C(F)(F)F)c2COc2ccc(CCC(=O)O)c(C)c2C)c(F)c1` [Cpd 89, 3-(4-[[3-(2-fluoro-4-methylphenyl)-5-(trifluoromethyl)-1,2-thiazol-4-yl]methoxy]-2,3-dimethylphenyl)propanoic acid], the results for the EC50 (in assay [1]; at Human GPR120 short form) were 416 nM and 67 nM, respectively.

Regarding `CCc1cc(CCC(=O)O)c(C(F)(F)F)cc1OCc1c(Cl)nsc1-c1ccccc1C` [Cpd 215, 3-(4-((3-chloro-5-(o-tolyl)isothiazol-4-yl)methoxy)-5-ethyl-2-(trifluoromethyl)phenyl)propanoic acid], the EC50 amounted to 2140 nM in assay [1] and 648 nM on Human GPR120 short form.

Consider `Cc1c(CCC(=O)O)ccc(OCc2c(C3CC(F)(F)C3)nsc2C(F)(F)F)c1C` [Cpd 137, 3-(4-[[3-(3,3-difluorocyclobutyl)-5-(trifluoromethyl)-1,2-thiazol-4-yl]methoxy]-2,3-dimethylphenyl) propanoic acid], for which the EC50 in assay [1] is 413 nM; at Human GPR120 short form it was 137 nM.

As to `O=C(O)CCc1cc(F)c(OCc2c(C3CCC(F)(F)C3)nsc2C(F)(F)F)c(F)c1` (centres unmarked) [Cpd 164, 3-(4-[[3-(3,3-difluorocyclopentyl)-5-(trifluoromethyl)-1,2-thiazol-4-yl]methoxy]-3,5-difluorophenyl)propanoic acid], the EC50 in assay [1] came to 427 nM; at Human GPR120 short form, 210 nM.

Turning to `Cc1ccc(-c2snc(C(F)(F)F)c2COc2ccc(CCC(=O)O)c(C(F)(F)F)c2)c(F)c1` [Cpd 221, 3-(4-[[5-(2-fluoro-4-methylphenyl)-3-(trifluoromethyl)-1,2-thiazol-4-yl]methoxy]-2-(trifluoromethyl)phenyl)propanoic acid], the EC50 in assay [1] was 731 nM; on Human GPR120 short form it was 756 nM.

Turning to “3-(4-[[5-(4-chlorophenyl)-3-(trifluoromethyl)-1,2-thiazol-4-yl]methoxy]-2-(trifluoromethoxy)phenyl) propanoic acid [Cpd 159]”, the EC50 turned out to be 819 nM in assay [1] and 274 nM on Human GPR120 short form.

On to `Cc1c(CCC(=O)O)ccc(OCc2c(C3CCC(F)(F)C3)nsc2C(F)(F)F)c1C` (centres unmarked) [Cpd 199, 3-(4-[[3-(3,3-difluorocyclopentyl)-5-(trifluoromethyl)-1,2-thiazol-4-yl]methoxy]-2,3-dimethylphenyl)propanoic acid], for which the EC50 in assay [1] was found to be 622 nM; at Human GPR120 short form, 423 nM.

In the case of `Cc1ccc(-c2snc(C(F)(F)F)c2COc2c(F)cc(CCC(=O)O)cc2F)c(F)c1` [Cpd 95, 3-(3,5-difluoro-4-[[5-(2-fluoro-4-methylphenyl)-3-(trifluoromethyl)-1,2-thiazol-4-yl]methoxy]phenyl)propanoic acid], the EC50 in assay [1] worked out at 116 nM; on Human GPR120 short form, 72 nM.

Regarding `COc1cc(OCc2c(Cl)nsc2-c2ccccc2C)ccc1CCC(=O)O` [Cpd 222, 3-(4-((3-chloro-5-(o-tolyl)isothiazol-4-yl)methoxy)-2-methoxyphenyl)propanoic acid], the EC50 was 1950 nM in assay [1] and 757 nM at Human GPR120 short form.

As to `Cc1ccc(-c2snc(C(F)(F)F)c2COc2ccc(CCC(=O)O)c(C)c2C)c(C)c1` [Cpd 184, 3-(4-[[5-(2,4-dimethylphenyl)-3-(trifluoromethyl)-1,2-thiazol-4-yl]methoxy]-2,3-dimethylphenyl) propanoic acid], the EC50 is 997 nM in assay [1] and 300 nM at Human GPR120 short form.

Turning to `CCc1ccc(-c2nsc(C(F)(F)F)c2COc2ccc(CCC(=O)O)c(C)c2C)c(F)c1` [Cpd 225, 3-(4-((3-(4-ethyl-2-fluorophenyl)-5-(trifluoromethyl)isothiazol-4-yl)methoxy)-2,3-dimethylphenyl)propanoic acid], the EC50 in assay [1] stood at 227 nM; at Human GPR120 short form, 840 nM.

`CCc1ccc(-c2nsc(C(F)(F)F)c2COc2c(F)cc(CCC(=O)O)cc2F)cc1F` [Cpd 194, 3-(4-((3-(4-ethyl-3-fluorophenyl)-5-(trifluoromethyl)isothiazol-4-yl)methoxy)-3,5-difluorophenyl)propanoic acid]: the EC50 in assay [1] is 40 nM; at Human GPR120 short form it was 362 nM.

On to `O=C(O)CCc1cc(F)c(OCc2c(C(F)(F)F)nsc2-c2ccc(Cl)c(F)c2)c(F)c1` [Cpd 110, 3-(4-[[5-(4-chloro-3-fluorophenyl)-3-(trifluoromethyl)-1,2-thiazol-4-yl]methoxy]-3,5-difluorophenyl) propanoic acid], for which the EC50 in assay [1] turned out to be 105 nM; at Human GPR120 short form it was 94 nM.

With `CC(Cc1cc(F)c(OCc2c(-c3ccc(Cl)c(F)c3)nsc2C(F)(F)F)c(F)c1)C(=O)O` (centres unmarked) [Cpd 90, 3-(4-((3-(4-chloro-3-fluorophenyl)-5-(trifluoromethyl)isothiazol-4-yl)methoxy)-3,5-difluorophenyl)-2-methylpropanoic acid], the EC50 in assay [1] came out at 154 nM; on Human GPR120 short form it was 67 nM.

For the compound `COc1ccc(-c2nsc(C(F)(F)F)c2COc2ccc(CCC(=O)O)c(C)c2C)cc1F` [Cpd 172, 3-(4-[[3-(3-fluoro-4-methoxyphenyl)-5-(trifluoromethyl)-1,2-thiazol-4-yl]methoxy]-2,3-dimethylphenyl)propanoic acid], the EC50 in assay [1] was found to be 147 nM; on Human GPR120 short form it was 229 nM.

With `Cc1ccc(-c2nsc(C(F)(F)F)c2COc2ccc(CCC(=O)O)c(C)c2C)cc1F` [Cpd 109, 3-(4-[[3-(3-fluoro-4-methylphenyl)-5-(trifluoromethyl)-1,2-thiazol-4-yl]methoxy]-2,3-dimethylphenyl)propanoic acid], the EC50 in assay [1] is 75 nM; on Human GPR120 short form, 89 nM.

For the compound `O=C(O)CCc1cc(F)c(OCc2c(-c3ccc(F)cc3F)nsc2C(F)(F)F)c(F)c1` [Cpd 174, 3-(4-((3-(2,4-difluorophenyl)-5-(trifluoromethyl)isothiazol-4-yl)methoxy)-3,5-difluorophenyl)propanoic acid], the values for the EC50 (in assay [1]; at Human GPR120 short form) were 85 nM and 246 nM, respectively.

For `Cc1cc(CCC(=O)O)c(C(F)(F)F)cc1OCc1c(Cl)nsc1-c1ccccc1C` [Cpd 210, 3-(4-((3-chloro-5-(o-tolyl)isothiazol-4-yl)methoxy)-5-methyl-2-(trifluoromethyl)phenyl)propanoic acid], the EC50 was 1050 nM in assay [1] and 580 nM on Human GPR120 short form.

For the compound `O=C(O)C1CC1c1ccc(OCc2c(-c3ccc(Cl)cc3)nsc2C(F)(F)F)cc1` (centres unmarked) [Cpd 205, 2-(4-((3-(4-chlorophenyl)-5-(trifluoromethyl)isothiazol-4-yl)methoxy)phenyl)cyclopropanecarboxylic acid], the EC50 in assay [1] stood at 741 nM; at Human GPR120 short form, 530 nM.
